# Target: human IL-17A / human IL-17RA (Homo sapiens (Human), UniProt Q16552)
# Test: Human IL-17A biochemical assay (HTRF, blocking of IL-17A binding to IL-17RA)
# Conditions: 0.4 nM IL-17A, 0.3 nM IL-17RA, max compound concentration 10 uM
# Protocol: Compounds disclosed herein were tested for blocking of human IL-17A (Cat: C774, novoprotein) protein with its receptor human IL-17RA (Cat: C153, novoprotein) in an assay based on Homogeneous Time Resolved Fluorescence. 0.4 nM recombinant human IL-17A protein was pre-incubated with a serial dilution of compounds disclosed herein (maximum concentration is 10 uM, 2.7-fold serially diluted, 10 points) at room temperature for 3 hours in an assay buffer containing 20 mM HEPES, pH 7.5, 50 mM NaCl, 0.1% BSA, 0.2 mM DTT, 0.005% Tween 20. Then 0.3 nM recombinant human IL-17RA was added to plate and further incubated at room temperature for 1 hour. After that Mab Anti-6His Tb cryptate Gold (Cat: 61HI2TLB, Cisbio Bioassays) and MAb Anti Human IgG-XL665 (Cat: 61HFCXLB, Cisbio Bioassays) were added to plate and further incubated at room temperature for 1 hour. The HTRF signals (ex337 nm, em620 nm/665 nm) were read on BMG PHERAstar FSX instrument. The inhibition percentage of human IL-17A interaction with its receptor human IL-17RA in presence of increasing concentrations of compounds was calculated based on the ratio of […]. The IC50 for each compound was derived from fitting the data to the four-parameter logistic equation by Dotmatics.
# human IL-17A / human IL-17RA, sequence (Q16552 24-155): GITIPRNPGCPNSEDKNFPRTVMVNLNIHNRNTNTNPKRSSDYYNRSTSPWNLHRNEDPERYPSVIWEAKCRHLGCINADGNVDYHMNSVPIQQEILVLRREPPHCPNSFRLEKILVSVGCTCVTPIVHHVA
row,Structure (SMILES),IC50 [µM]
1,"Cc1nonc1C(=O)N[C@H](C(=O)Nc1ccc2c(c1)CC(CN1C[C@@H](C(F)(F)F)NC1=O)O2)C(C1CC1)C1CC1 (stereo partly drawn) [Example 293, N-((2S)-1,1-dicyclopropyl-3-oxo-3-((2-(((S)-2-oxo-4-(trifluoromethyl)imidazolidin-1-yl)methyl)-2,3-dihydrobenzofuran-5-yl)amino)propan-2-yl)-4-methyl-1,2,5-oxadiazole-3-carboxamide]",> 10
2,"CNC(=O)C1(N2C[C@@H](C(C)C)NC2=O)Cc2ccc(NC(=O)C(NC(=O)c3ccnn3C)C3CCC(OC)CC3)cc2C1 (stereo partly drawn) [Example 72, N-(2-((2-((R)-4-isopropyl-2-oxoimidazolidin-1-yl)-2-(methylcarbamoyl)-2,3-dihydro-1H-inden-5-yl)amino)-1-(4-methoxycyclohexyl)-2-oxoethyl)-1-methyl-1H-pyrazole-5-carboxamide]",3.63
3,"CNC(=O)C1(N2CC(CC(C)C)NC2=O)Cc2ccc(NC(=O)[C@@H](NC(=O)c3ccnn3C)C3CCCCC3)cc2C1 (stereo partly drawn) [Example 24, N-((1S)-1-cyclohexyl-2-((2-(4-isobutyl-2-oxoimidazolidin-1-yl)-2-(methylcarbamoyl)-2,3-dihydro-1H-inden-5-yl)amino)-2-oxoethyl)-1-methyl-1H-pyrazole-5-carboxamide]",2.34
4,"Cc1nonc1C(=O)N[C@H](C(=O)Nc1ccc2c(c1)CC(C(=O)Nc1cc(Cl)cc(Cl)c1)(N1C[C@@H](C(C)C)NC1=O)C2)C(C1CC1)C1CC1 (stereo partly drawn) [Example 265, N-((2S)-1,1-dicyclopropyl-3-((2-((3,5-dichlorophenyl)carbamoyl)-2-((R)-4-isopropyl-2-oxoimidazolidin-1-yl)-2,3-dihydro-1H-inden-5-yl)amino)-3-oxopropan-2-yl)-4-methyl-1,2,5-oxadiazole-3-carboxamide]",8.07
5,"CNC(=O)C1(N2C[C@@H](C(C)C)NC2=O)Cc2ccc(NC(=O)[C@@H](NC(=O)c3ccnn3C)C3CCC3)cc2C1 (stereo partly drawn) [Example 45, N-((1S)-1-cyclobutyl-2-((2-((R)-4-isopropyl-2-oxoimidazolidin-1-yl)-2-(methylcarbamoyl)-2,3-dihydro-1H-inden-5-yl)amino)-2-oxoethyl)-1-methyl-1H-pyrazole-5-carboxamide]",5.13
6,"CNC(=O)C1(N2CC(C)NC2=O)CCc2ccc(NC(=O)[C@@H](NC(=O)c3ccnn3C)C3CCCCC3)cc2C1 (stereo partly drawn) [Example 10, N-((1S)-1-cyclohexyl-2-((7-(4-methyl-2-oxoimidazolidin-1-yl)-7-(methylcarbamoyl)-5,6,7,8-tetrahydronaphthalen-2-yl)amino)-2-oxoethyl)-1-methyl-1H-pyrazole-5-carboxamide]",19
7,"CNC(=O)C1(N2C[C@@H](C(C)C)NC2=O)Cc2ccc(NC(=O)[C@@H](NC(=O)c3ncnn3C)C3CCCCC3)cc2C1 (stereo partly drawn) [Example 64, N-((1S)-1-cyclohexyl-2-((2-((R)-4-isopropyl-2-oxoimidazolidin-1-yl)-2-(methylcarbamoyl)-2,3-dihydro-1H-inden-5-yl)amino)-2-oxoethyl)-1-methyl-1H-1,2,4-triazole-5-carboxamide]",1.82
8,"Cc1nonc1C(=O)N[C@H](C(=O)Nc1ccc2c(c1)CC(C(=O)Nc1ccc(C(F)(F)F)c(Cl)c1)(N1C[C@@H](C(C)C)NC1=O)C2)C(C1CC1)C1CC1 (stereo partly drawn) [Example 260, N-((2S)-1-((2-((3-chloro-4-(trifluoromethyl)phenyl)carbamoyl)-2-((R)-4-isopropyl-2-oxoimidazolidin-1-yl)-2,3-dihydro-1H-inden-5-yl)amino)-3,3-dicyclopropyl-1-oxopropan-2-yl)-4-methyl-1,2,5-oxadiazole-3-carboxamide]",> 10
9,"CNC(=O)C1(N2CCC(C)NC2=O)Cc2ccc(NC(=O)[C@@H](NC(=O)c3ccnn3C)C3CCCCC3)cc2C1 (stereo partly drawn) [Example 95, N-((1S)-1-cyclohexyl-2-((2-(4-methyl-2-oxotetrahydropyrimidin-1(2H)-yl)-2-(methylcarbamoyl)-2,3-dihydro-1H-inden-5-yl)amino)-2-oxoethyl)-1-methyl-1H-pyrazole-5-carboxamide]",4.23
10,"CNC(=O)C1(N2CC(C(C)(C)O)NC2=O)Cc2ccc(NC(=O)[C@@H](NC(=O)c3ccnn3C)C3CCCCC3)cc2C1 (stereo partly drawn) [Example 42, N-((1S)-1-cyclohexyl-2-((2-(4-(2-hydroxypropan-2-yl)-2-oxoimidazolidin-1-yl)-2-(methylcarbamoyl)-2,3-dihydro-1H-inden-5-yl)amino)-2-oxoethyl)-1-methyl-1H-pyrazole-5-carboxamide]",3.17
11,"CC1CN(CC2Cc3ccc(NC(=O)[C@@H](NC(=O)c4ccnn4C)C4CCCCC4)cc3O2)C(=O)N1 (stereo partly drawn) [Example 21, N-((1S)-1-cyclohexyl-2-((2-((4-methyl-2-oxoimidazolidin-1-yl)methyl)-2,3-dihydrobenzofuran-6-yl)amino)-2-oxoethyl)-1-methyl-1H-pyrazole-5-carboxamide]",2.4
12,"CNC(=O)C1(N2C[C@@H](C(C)C)NC2=O)Cc2ccc(NC(=O)[C@@H](NC(=O)c3ccnn3C)c3ccccc3)cc2C1 (stereo partly drawn) [Example 60, N-((1S)-2-((2-((R)-4-isopropyl-2-oxoimidazolidin-1-yl)-2-(methylcarbamoyl)-2,3-dihydro-1H-inden-5-yl)amino)-2-oxo-1-phenylethyl)-1-methyl-1H-pyrazole-5-carboxamide]",2.01
13,"Cc1nonc1C(=O)N[C@H](C(=O)Nc1ccc2c(c1)CC(C(=O)Nc1ccc(C3CC3)cc1Cl)(N1C[C@@H](C(C)C)NC1=O)C2)C(C1CC1)C1CC1 (stereo partly drawn) [Example 267, N-((2S)-1-((2-((2-chloro-4-cyclopropylphenyl)carbamoyl)-2-((R)-4-isopropyl-2-oxoimidazolidin-1-yl)-2,3-dihydro-1H-inden-5-yl)amino)-3,3-dicyclopropyl-1-oxopropan-2-yl)-4-methyl-1,2,5-oxadiazole-3-carboxamide]",> 10
14,"CNC(=O)C1(N2CC(Cc3ccc(C#N)cc3)NC2=O)Cc2ccc(NC(=O)[C@@H](NC(=O)c3ccnn3C)C3CCCCC3)cc2C1 (stereo partly drawn) [Example 140, N-((1S)-2-((2-(4-(4-cyanobenzyl)-2-oxoimidazolidin-1-yl)-2-(methylcarbamoyl)-2,3-dihydro-1H-inden-5-yl)amino)-1-cyclohexyl-2-oxoethyl)-1-methyl-1H-pyrazole-5-carboxamide]",0.277
15,"CNC(=O)C1(N2CC(C3CCOC3)NC2=O)Cc2ccc(NC(=O)[C@@H](NC(=O)c3ccnn3C)C3CCCCC3)cc2C1 (stereo partly drawn) [Example 34, N-((1S)-1-cyclohexyl-2-((2-(methylcarbamoyl)-2-(2-oxo-4-(tetrahydrofuran-3-yl)imidazolidin-1-yl)-2,3-dihydro-1H-inden-5-yl)amino)-2-oxoethyl)-1-methyl-1H-pyrazole-5-carboxamide]",8.4
16,"CNC(=O)C1(N2CC(C)NC2=O)COc2ccc(NC(=O)[C@@H](NC(=O)c3ccnn3C)C3CCCCC3)cc2OC1 (stereo partly drawn) [Example 6, N-((1S)-1-cyclohexyl-2-((3-(4-methyl-2-oxoimidazolidin-1-yl)-3-(methylcarbamoyl)-3,4-dihydro-2H-benzo[b][1,4]dioxepin-7-yl)amino)-2-oxoethyl)-1-methyl-1H-pyrazole-5-carboxamide]",17
17,"CNC(=O)C1(N2CC3(CC3)CNC2=O)Cc2ccc(NC(=O)[C@@H](NC(=O)c3ccn(C4CC(O)C4)n3)C3CCCCC3)cc2C1 (stereo partly drawn) [Example 133, N-((1S)-1-cyclohexyl-2-((2-(methylcarbamoyl)-2-(6-oxo-5,7-diazaspiro[2.5]octan-5-yl)-2,3-dihydro-1H-inden-5-yl)amino)-2-oxoethyl)-1-(3-hydroxycyclobutyl)-1H-pyrazole-3-carboxamide]",0.32
18,"CNC(=O)C1Cc2ccc(NC(=O)[C@@H](NC(=O)c3ccnn3C)C3CCCCC3)cc2C1 (stereo partly drawn) [Example 4, N-((1S)-1-cyclohexyl-2-((2-(methylcarbamoyl)-2,3-dihydro-1H-inden-5-yl)amino)-2-oxoethyl)-1-methyl-1H-pyrazole-5-carboxamide]",> 10
19,"CNC(=O)C1(N2CC(CC3CCCCC3)NC2=O)Cc2ccc(NC(=O)[C@@H](NC(=O)c3ccnn3C)C3CCCCC3)cc2C1 (stereo partly drawn) [Example 88, N-((1S)-1-cyclohexyl-2-((2-(4-(cyclohexylmethyl)-2-oxoimidazolidin-1-yl)-2-(methylcarbamoyl)-2,3-dihydro-1H-inden-5-yl)amino)-2-oxoethyl)-1-methyl-1H-pyrazole-5-carboxamide]",2.06
20,"CNC(=O)C1(N2CC(C)NC2=O)CCc2cc(NC(=O)[C@@H](NC(=O)c3ccnn3C)C3CCCCC3)ccc21 (stereo partly drawn) [Example 8, N-((1S)-1-cyclohexyl-2-((1-(4-methyl-2-oxoimidazolidin-1-yl)-1-(methylcarbamoyl)-2,3-dihydro-1H-inden-5-yl)amino)-2-oxoethyl)-1-methyl-1H-pyrazole-5-carboxamide]",> 10
21,"CNC(=O)C1(N2C[C@@H](C3CCCCC3)NC2=O)Cc2ccc(NC(=O)[C@@H](NC(=O)c3ccnn3C)C3CCCCC3)cc2C1 (stereo partly drawn) [Example 25, N-((1S)-1-cyclohexyl-2-((2-((R)-4-cyclohexyl-2-oxoimidazolidin-1-yl)-2-(methylcarbamoyl)-2,3-dihydro-1H-inden-5-yl)amino)-2-oxoethyl)-1-methyl-1H-pyrazole-5-carboxamide]",6.3

# Reference: patent US20250154138A1, “Small Molecule IL-17A Modulators” (BeiGene, Ltd., priority 2022, published 2025)
